Series [1] is described as follows: clinical. Particulars: human, in vivo, iv; call rule not given here.
For series [2] the following is noted: pH 7.4.
Series [3] can be described thus: physchem.
A short description of series [4]: in vitro. Particulars: human, plasma.
The nature of series [5]: in vitro.
Series [6] in a line: Ionisation constant (pKa). In kind it is physicochemical.

As for `COc1cc2c(c(OC)c1OC)-c1ccc(OC)c(=O)cc1[C@@H](NC(C)=O)CC2` [COLCHICINE], the distribution volume (Vd) in series [1] turned out to be 4.2 L/kg. The Fraction ionised in series [2] is reported as 0. Moreover, the chromatographic logD in series [3] is 0.9.
Compound `CCCCCc1cc(O)c2c(c1)OC(C)(C)[C@@H]1CCC(C)=C[C@@H]21` [DRONABINOL] showed a distribution volume (Vd) in series [1] of 9.8 L/kg. The Fraction ionised in series [2] is 0. Moreover, the figures for the fraction unbound in series [4] and in series [5] (tissues) were 0.03 and 0.001, respectively. Moreover, in series [3], the chromatographic logD was found to be 6.8.
`CN1C[C@H](C(=O)N[C@]2(C)O[C@@]3(O)[C@@H]4CCCN4C(=O)[C@H](Cc4ccccc4)N3C2=O)C=C2c3cccc4[nH]cc(c34)C[C@H]21` [ERGOTAMINE] had a Vd in series [1] of 2.7 L/kg. The same compound registered a Fraction ionised in series [2] of 0.074. Also, the fraction unbound in series [4] is 0.02; in series [5] (tissues), 0.003. Besides, the chromatographic logD in series [3] was determined as 4.3.
Take `CCOC(=O)C1=C(C)NC(C)=C(C(=O)OC)C1c1cccc(Cl)c1Cl` (stereo not drawn) [FELODIPINE]: the Fraction ionised in series [2] was found to be 0. For the same compound, the chromatographic logD in series [3] was 4.52.
On to `Cc1ncc([N+](=O)[O-])n1CCO` [METRONIDAZOLE], for which, in series [6], the pKa result is listed as “Not Active”. The compound further displayed a distribution volume (Vd) in series [1] of 0.74 L/kg. For the same compound, in series [2], the Fraction ionised came out at 0. The fraction unbound in series [4] is 0.89; in series [5] (tissues) it was 0.609.
For the compound `CCc1nn(CCCN2CCN(c3cccc(Cl)c3)CC2)c(=O)n1CCOc1ccccc1` [NEFAZODONE], the pKa in series [6] was determined as 6.79. In series [1], the Vd came out at 0.51 L/kg. In series [2], the Fraction ionised was determined as 0.197. Further, the fraction unbound in series [5] (tissues) was 0.008. Also, in series [3], the chromatographic logD amounted to 4.83.
As for `CN1CCC[C@H]1c1cccnc1` [NICOTINE], the Vd in series [1] came to 2.6 L/kg. Moreover, the Fraction ionised in series [2] is 0.834. The compound also came in with a fraction unbound in series [5] of 0.15. The same compound had a chromatographic logD in series [3] of 0.23.
On to `CN/C(=C\[N+](=O)[O-])NCCSCc1csc(CN(C)C)n1` [NIZATIDINE], for which the pKa in series [6] is 6.59. In series [1], this compound registered a Vd of 1.2 L/kg. Moreover, in series [2], the Fraction ionised was determined as 0.134. The fraction unbound in series [4] is 0.78; in series [5] (tissues) it was 0.0289.
In series [1], `CC(=O)O[C@H]1C(=O)[C@@]2(C)[C@H]([C@H](OC(=O)c3ccccc3)[C@]3(O)C[C@H](OC(=O)[C@H](O)[C@@H](NC(=O)c4ccccc4)c4ccccc4)C(C)=C1C3(C)C)[C@]1(OC(C)=O)CO[C@@H]1C[C@@H]2O` [PACLITAXEL] registered a volume of distribution (Vd) of 2.4 L/kg. This compound also registered a Fraction ionised in series [2] of 0. The results for the fraction unbound in series [4] and in series [5] were 0.03 and 0.005, respectively. Moreover, in series [3], the chromatographic logD was found to be 4.45.
`CCN(CC)CCCC(C)Nc1c2ccc(Cl)cc2nc2ccc(OC)cc12` (stereo not drawn) [QUINACRINE] yielded a pKa in series [6] of 10.2. The same compound had a Vd in series [1] of 223 L/kg. This compound showed a fraction unbound in series [4] of 0.103. The compound also came in with a chromatographic logD in series [3] of 1.1.
`C#CCCCC(=O)c1cc(C(C)(C)C)c(O)c(C(C)(C)C)c1` [TEBUFELONE] had a Vd in series [1] of 31 L/kg. Moreover, the Fraction ionised in series [2] is reported as 0. The fraction unbound in series [4] stood at 0.00067; in series [5] (tissues) it was 8e-06. This compound came in with a chromatographic logD in series [3] of 5.56.
`Cc1ccc(O)c([C@H](CCN(C(C)C)C(C)C)c2ccccc2)c1` [TOLTERODINE]: the pKa in series [6] was 9.87. In series [1], this compound returned a Vd of 1.3 L/kg. The same compound returned a Fraction ionised in series [2] of 0.997. The compound further displayed a fraction unbound in series [5] (tissues) of 0.012. For the same compound, the chromatographic logD in series [3] turned out to be 1.04.
As to `O=c1n(CCCN2CCN(c3cccc(Cl)c3)CC2)nc2ccccn12` [TRAZODONE], in series [6], the pKa was 6.79. For the same compound, in series [1], the volume of distribution (Vd) was found to be 1 L/kg. For the same compound, the Fraction ionised in series [2] is 0.197. Besides, the fraction unbound in series [4] worked out at 0.07; in series [5] (tissues), 0.03.

As usually defined, the Vd is a proportionality between amount in the body and measured concentration, not a real space. Low readings indicate little distribution into tissue, high ones wide distribution into tissue. By chromatographic logD is commonly meant lipophilicity estimated from chromatographic retention. Higher therefore signals higher lipophilicity. In general, pKa refers to the negative logarithm of the acid dissociation constant. A high value points to a weaker acid or stronger base.

Source of the values: ChEMBL document CHEMBL1135488, “Prediction of volume of distribution values in humans for neutral and basic drugs using physicochemical measurements and plasma protein binding data” (J Med Chem, 2002).
